Here are results for one substance from patent US20150125457A1, “BONE REPAIR PROMOTER” (DAIICHI SANKYO COMPANY, LIMITED, priority 2012, published 2015).

Common to all, as to format: in vivo
In experiment [1] the test system is rat femur fracture model. Kind of experiment: Rat femur fracture model, tissue observation in the femur fracture site. As to the method: A fracture model was surgically prepared at the left femoral diaphysis of a 6-week-old female SD strain (Crl: CD) IGS rat. A barbital-based anesthetic agent (Somnopentyl®, Kyoritsu Seiyaku Corporation) was intraperitoneally administered to an animal in order to anesthetize the animal. Isoflurane (Escain, Mylan Inc.) inhalation anesthesia was performed as an adjunct to anesthesia. The skin on the upside of the knee joint was incised, exfoliation was performed between the rectus femoris muscle and the vastus lateralis muscle to expose the femur. At around 0.5 mm distal from the center of the femoral diaphysis, the diaphysis was completely cut in cross-section by a bone cutter (Osada Equipment Co., Ltd.). After that, an injection needle 21G was inserted into the bone marrow between the greater trochanter and the femur neck of the left femur, and the muscle and the skin were sutured with 2 to 3 stitches. For the prevention of post-operative suppuration, potassium penicillin G for injection (Meiji Seika Kaisha, Limited) was administered as an antibiotic, and the suture site of the skin was disinfected with povidone-iodine (Isodine®, Meiji Seika Kaisha, Limited). As the test substance, CNP derivative A (SEQ ID NO: 13: the SEQ ID NO: 157 of the publication of US patent application US 2010-305031, produced by a method described in the publication) was used for repeated subcutaneous administration at 10 or 100 nmol/kg once per day for 8 weeks. Vehicle was administered to the control group. On the next day after the administration end date, the left and right femurs and the left and right tibiae were resected. For the resected bone, the bone length, and the callus size in the fracture site were measured, the left and right femurs were subjected to soft X-ray radiography, and then the healing state in the fracture site was determined. After that, a three-point bending strength test was performed by using a bone strength measuring device MZ-500S (MARUTO INSTRUMENT CO., LTD.), and a bone strength testing system CTR win Ver. 1.21 (System Supply Co., Ltd.). The bone after finishing the measurements was fixed with 10% neutral buffered formalin, and the pathologic sample was prepared and observed. The administration was performed to a group of 14 rats including spare rats. At 2, 4, and 6 weeks after the administration, one from each of the cases was sampled for follow-up, further the one in the control group, which had shown nonunion-like symptoms, was excluded from the evaluation, and eventually the results were evaluated as a group of 10 rats.

Experiment [2] has as its system rat femur fracture model. Nature of the experiment: Rat femur fracture model, soft X-ray radiography of femurs. The following applies: 10 or 100 nmol/kg s.c. once per day for 8 weeks; FIG. 1. On the procedure:
A fracture model was surgically prepared at the left femoral diaphysis of a 6-week-old female SD strain (Crl: CD) IGS rat. A barbital-based anesthetic agent (Somnopentyl®, Kyoritsu Seiyaku Corporation) was intraperitoneally administered to an animal in order to anesthetize the animal. Isoflurane (Escain, Mylan Inc.) inhalation anesthesia was performed as an adjunct to anesthesia. The skin on the upside of the knee joint was incised, exfoliation was performed between the rectus femoris muscle and the vastus lateralis muscle to expose the femur. At around 0.5 mm distal from the center of the femoral diaphysis, the diaphysis was completely cut in cross-section by a bone cutter (Osada Equipment Co., Ltd.). […] For the resected bone, the bone length, and the callus size in the fracture site were measured, the left and right femurs were subjected to soft X-ray radiography, and then the healing state in the fracture site was determined. […] At 2, 4, and 6 weeks after the administration, one from each of the cases was sampled for follow-up, further the one in the control group, which had shown nonunion-like symptoms, was excluded from the evaluation, and eventually the results were evaluated as a group of 10 rats.

For experiment [3], the system named is rat closed femur fracture model. Kind of experiment: Rat closed femur fracture model, torsion test of femur strength. The following applies: 4 weeks after fracture. From the text:
A 10-week-old male Wistar rat (Charles River Laboratories Japan, Inc.) was anesthetized by isoflurane inhalation (inhalation of 5%, and retention of 2%), and retained in a supine position. The peripheral portion of the left knee was shaved with a clipper, and disinfected with Hibitane. About 2 cm of the skin of the left knee on the upside of the patella was incised. About 5 mm of the joint capsule was incised along with the outer edge of the patella, and then the patella was dislocated inward from the trochlear groove. A 22G injection needle was inserted into the medullary cavity in the center of the trochlear groove, and pulled out. Into the hole, a Kirschner wire (MIZUHO Corporation) having a diameter of 1 mm, which had been cut to 32 mm in advance was fully inserted in the medullary cavity of the femur. The joint capsule and the incised part of the skin were sutured with nylon suture (Alfresa Pharma Corporation). The left hind limb was fixed to an Einhorn type of bone fracture preparation device (special order item), and mechanical stress was added to the femur by dropping a weight from a predetermined position to prepare the bone fracture. Soft X-ray images of the hind limb were taken by using CT for animals (LCT-200, Hitachi Aloka Medical, Ltd.), and as a result it was confirmed that transverse fracture was prepared in the vicinity of the center of the femur. For the infection prevention, potassium penicillin G (Meiji Seika Pharma Co., Ltd.) was administered intramuscularly. CNP derivative A was administered subcutaneously once a day at a dose of 0.42 mg/kg/day for 7 days from one day after the surgery. Vehicle was administered to the control group. 4 weeks after the preparation of the bone fracture, the animal was anesthetized by isoflurane inhalation, retained in a supine position, and then bled for the euthanasia. The left and right femurs were resected, immersed in a physiological saline solution, and cryopreserved in a freezer. The femurs were thawed at a later date, subjected to torsion test using a bone strength meter (MZ-500S, MARUTO INSTRUMENT CO., LTD.), and the strength of the femur was measured. The test was performed in 12 cases in each group.

For experiment [4] the test system is unchanged. Nature of the experiment: Rat closed femur fracture model, callus diameter. The following applies: 0.5 mg/kg/day continuous s.c. for one week; 7 days after fracture; versus vehicle group; FIG. 5B. As to the method: In accordance with the method of Example 2, a rat closed fracture model was prepared. An administration solution was prepared so as to be a dosage corresponding to 0.5 mg/kg/day by using various NPR-B agonists (CNP derivative A, hCNP-53 (SEQ ID NO: 2), CNP derivative C (CNP-36, amino acid Nos. 18 to 53 of SEQ ID NO: 2), and CNP derivative D (Pro-Gly-CNP37, SEQ ID NO: 15)), and then loaded into an osmotic pump (Model 2001, Alzet). The osmotic pump was buried under the skin of the neck back of the animal retained in a supine position, and continuous subcutaneous administration was performed for one week. Vehicle was administered to the control group. 7 days after the preparation of the bone fracture, the animal was subjected to isoflurane inhalation anesthesia, retained in a supine position to open the abdomen, and then subjected to blood collection from the abdominal aorta. EDTA Na was added to the blood, then the EDTA Na-added blood was centrifuged and the plasma separated, and the resultant was cryopreserved. At a later date, the cGMP level in the plasma was measured by a RIA method using a kit (YSI-7702, YAMASA CORPORATION). After blood collection, the animal was bled for the euthanasia, and then the left femur was resected. Each maximum diameter of the sagittal plane and the coronal plane in the callus was measured, and the average value was used as a callus diameter. In accordance with the method of Example 3, the type X collagen gene expression level in the callus was measured. The measurement was performed for 12 cases in each group.

Where [5] appears, read: 10 nmol/kg, 8-week administration, left femur fracture site, grade 0-5, mean ± SD, N=10.
The mark [6] stands for this setting: 100 nmol/kg, 8-week administration, left femur fracture site, grade 0-5, mean ± SD, N=10.
Setting [7] is: 100 nmol/kg, 8 weeks, compared to the control group.

On to “CNP derivative A: CNP (1-22) Ghrelin (12-28, E17D): SEQ ID NO: 13; SEQ ID NO: 157 of US 2010-305031 (GLSKGCFGLKLDRIGSMSGLGCVQQRKDSKKPPAKLQPR; Chimeric CNP J (SEQ ID NO157) of US2010-305031 and WO2009/142307, and CNP derivative A of current invention.)”, for which, in the experiment with rat femur fracture model [1] (setting [5]), the “Callus Amount” value is 2.1 ± 1.0 Grade, the “Callus Cartilage” value is 1.5 ± 2.0 Grade, the “Callus Continuity” value was 3.2 ± 2.1 Grade and the “Cortical bone/bone marrow areas Cancellous bone” value came out at 2.9 ± 1.7 Grade. Further, in the experiment on rat femur fracture model [1] (setting [5]), the “Cortical bone/bone marrow areas Cartilage” value was 0.9 ± 1.7 Grade, the “Cortical bone/bone marrow areas Connective tissue” value stood at 0.7 ± 1.6 Grade and the “Cortical bone/bone marrow areas Osteoclasts” value is reported as 0.6 ± 1.1 Grade. For the same substance, in the experiment with rat femur fracture model [1] (setting [6]), the “Callus Amount” value was determined as 2.3 ± 1.2 Grade, the “Cortical bone/bone marrow areas Cancellous bone” value was determined as 3.0 ± 1.1 Grade and the “Cortical bone/bone marrow areas Continuity” value is reported as 2.7 ± 1.8 Grade. Also, in the experiment on rat femur fracture model [1] (setting [7]), the “Grade of cartilage formation” value is given as “tendency for a decreasing grade of cartilage formation” and the “Grade of ossification of the callus” value is recorded as “tendency for an increasing grade of ossification of the callus”. The “Repair of the bone cut region” value in the experiment with rat femur fracture model [1] (overall conclusion of tissue observation, 8 weeks after fracture) is “promoted”. In the experiment on rat femur fracture model [2], the “Continuity of the cortical bone in soft X-ray images of femurs” value is “tendency for enhanced continuity of the cortical bone” and the “Remaining fracture line in soft X-ray images of femurs” value is listed as “decreasing tendency for the fracture line to remain”. The “Share of individuals whose fractured left femur showed the reference value (3 N×mm/deg) or more” value in experiment [3] (0.42 mg/kg/day s.c. for 7 days, 12 individuals, vehicle 33%) is recorded as 83%. In addition, in experiment [3] (0.42 mg/kg/day s.c. for 7 days, out of 12 individuals), the “Number of individuals whose fractured left femur showed the reference value (3 N×mm/deg) or more” value is reported as 10 individuals. Further, the “Healing rate of the fracture” value in experiment [3] (0.42 mg/kg/day s.c. for 7 days, versus vehicle) is “significantly improved”. Also, the “Strength of the left femur to which bone fracture had been prepared (torsion test stiffness)” value in experiment [3] (0.42 mg/kg/day s.c. once a day for 7 days from one day after surgery, 12 cases) was “almost the same as that of the untreated right femur”. The “Maximum diameter of the callus generated in the left femur” value in experiment [4] is “significantly larger”.
